Measurements taken from paper PMC12083017, “Enhanced oral bioavailability of two Cistanche polysaccharides in acteoside: an in-depth analysis of intestinal flora, short-chain fatty acids, and pharmacokinetic regulation” (Frontiers in Nutrition, 2025).
Where two headings read alike, the source gives them in different places.

Key:
[1] = Pharmacokinetics of acteoside and its metabolites in rat plasma after oral acteoside (UPLC-QqQ-MS); assay type: in vivo, male Sprague–Dawley rats; conditions: for AUC(0-inf) / AUC(0-t) / Tmax / half-life / Cmax / MRT last / MRT inf: male, Sprague-Dawley, rat, plasma, po, 100 mg/kg; for MRT last: read-out: MRT(0-t); for MRT inf: read-out: MRT(0-∞)
Description: After a week of acclimatization, rats were split into three groups at random: the wine-processed Cistanche polysaccharide group (WCP group), the unprocessed Cistanche polysaccharide group (UCP group), and the blank control group (Control group). Six rats each group were raised in the same cage for breeding. Prior to the experiment, provide water and regular laboratory meals to the rats at will and fast for one night before the experiment. In order to ensure the continuous intake of Cistanche polysaccharides, it was calculated according to the requirements of the Chinese Pharmacopoeia ([16]) based on the daily dosage of Cistanche for adults, the polysaccharide yield of Cistanche polysaccharides and the equivalent conversion formula of the drug administration between humans and rats ([17]). An appropriate amount of raw Cistanche polysaccharide and Cistanche wine polysaccharide were weighed, dissolved in pure water, and prepared with 15.06 g·kg^-1 administration solution for continuous administration for 21 days. After fasting overnight, on day 22, two fresh fecal samples were collected from each rat, put straight into a sterile tube from the anus, avoiding contact with skin or urine, and stored in a -80°C freezer immediately after freezing with liquid nitrogen for subsequent analysis. For the pharmacokinetics, in a 1.5 mL heparinized centrifuge tube, 0.3 mL of continuous blood collected from the orbital vein was taken from 0 min, 5 min, 10 min, 30 min, 1.0 […], and 36 h following oral administration of acteoside (100 mg/kg) in the three groups. Using a cryo-centrifuge, plasma samples were produced by centrifuging at 800 g for ten minutes at 4°C. After that, plasma samples were gathered and kept for later examination at -80°C. […] Following this,20 μL of genistein (1 μg/mL IS) solution and 600 μL of cold acetonitrile were then included and centrifuged for 5 min, the […] proteins were separated by vortexing for 5 min, and then they were spun down for 15 min at 4°C at 14,000 rpm. The supernatant was gathered and dried at 40°C with a light nitrogen stream. The dried remnant was then immersed in 100 μL of 25% aqueous acetonitrile fluid, and centrifugation was performed again for 10 min at 4°C at 14,000 rpm. Ultimately, the LC-MS/MS system was injected with 2 μL of the liquid for analysis. A 1.7 μm and 2.1 × 100 mm I.D. […] With a column temperature of 30°C, the flow rate was fixed at 0.3 mL/min. In the mass spectrometry analysis, negative ionization mode was performed with the following optimized parameters: capillary voltage, 3.0 kV; desolvation temperature, 400°C. […] Thus, multiple reaction monitoring (MRM) of the acteoside transitions at 623.37 → 161.02 m/z, caffeic acid transitions at 179.01 → 135.03 m/z, hydroxytyrosol transitions at 153.03 → 122.95 m/z, genistein transitions at 269.08 → 132.57 m/z was used for quantification. […] Data were processed using Masslynx workstation data acquisition and qualitative analysis software (4.1, Waters, USA). Using the DAS program (Chinese Pharmacological Society, Beijing, China), pharmacokinetic parameters were estimated.

[2] = assay type: physicochemical; conditions: rat; for Short-term stability (RSD,%): 4 h; for Post-preparation stability (RSD,%): 24 h; for Long-term stability (RSD,%): 15 days
Experimental: A 4°C freezer was then used to make and store the stock solution (1 mg/mL). Moreover, 50% methanol was used to dilute 1 μg/mL of the IS working solution. […] Before being analyzed, the entire set of QC samples were kept at −80°C. An examination of stability using QC samples at low, medium, and high doses. Short-term stability was measured by injecting samples after staying 4 h at room temperature (25°C). After preparation, the sample was kept at 4°C for 24 h, and the dosage was injected to ascertain the sample’s stability. To determine long-term stability, samples were frozen at −80°C for 15 days before being injected. By thawing the samples three times in a row at room temperature and a freezer at −20°C, the freeze–thaw stability was ascertained.

[3] = acteoside in rat plasma, oral acteoside 100 mg/kg, Control group, n = 6
[4] = acteoside in rat plasma, oral acteoside 100 mg/kg, UCP group, n = 6
[5] = acteoside in rat plasma, oral acteoside 100 mg/kg, WCP group, n = 6
[6] = metabolite in rat plasma following oral acteoside 100 mg/kg, Control group, n = 6
[7] = metabolite in rat plasma following oral acteoside 100 mg/kg, UCP group, n = 6
[8] = metabolite in rat plasma following oral acteoside 100 mg/kg, WCP group, n = 6

C[C@@H]1O[C@@H](O[C@@H]2[C@@H](O)[C@H](OCCc3ccc(O)c(O)c3)O[C@H](CO)[C@H]2OC(=O)/C=C/c2ccc(O)c(O)c2)[C@H](O)[C@H](O)[C@H]1O [Acteoside, acteoside]
AUC(0-inf) [1, 3]: 4360 ± 130 ng·h/mL | AUC(0-t) [1, 3]: 4200 ± 153 ng·h/mL | Tmax [1, 3]: 0.5 h | half-life [1, 3]: 2.06 ± 1.3 h | Cmax ([1]; acteoside in rat plasma, oral acteoside 100 mg/kg, Control group, n = 6, read-out: Cmax): 863 ± 63.4 ng/mL | MRT last [1, 3]: 3.94 ± 0.165 h | MRT inf [1, 3]: 4.34 ± 0.512 h | AUC(0-t) ([1]; acteoside in rat plasma, oral acteoside 100 mg/kg, UCP group (21 days UCP before), n = 6): 4980 ± 231 ng·h/mL | AUC(0-inf) [1, 4]: 5050 ± 267 ng·h/mL | Tmax [1, 4]: 0.75 h | Cmax ([1]; acteoside in rat plasma, oral acteoside 100 mg/kg, UCP group, n = 6, read-out: Cmax): 1030 ± 98.3 ng/mL | MRT last [1, 4]: 4.94 ± 0.165 h | MRT inf [1, 4]: 5.29 ± 0.629 h | AUC(0-t) ([1]; acteoside in rat plasma, oral acteoside 100 mg/kg, WCP group (21 days WCP before), n = 6): 6660 ± 543 ng·h/mL | AUC(0-inf) [1, 5]: 6690 ± 633 ng·h/mL | Tmax [1, 5]: 0.75 h | Cmax ([1]; acteoside in rat plasma, oral acteoside 100 mg/kg, WCP group, n = 6, read-out: Cmax): 1590 ± 103 ng/mL | MRT last [1, 5]: 4.996 ± 0.032 h | MRT inf [1, 5]: 5.6 ± 0.837 h | Cmax ([1]; rat plasma, oral acteoside 100 mg/kg, Control group, read-out: mean Cmax of acteoside): 863 ng/mL | Cmax ([1]; rat plasma, oral acteoside 100 mg/kg, UCP group, read-out: mean Cmax of acteoside): 1030 ng/mL | Cmax ([1]; rat plasma, oral acteoside 100 mg/kg, WCP group, read-out: mean Cmax of acteoside): 1590 ng/mL | AUC(0-∞) of acteoside, increase after UCP relative to control ([1]; rats, oral acteoside 100 mg/kg): 1.16 times | AUC(0-∞) of acteoside, increase after WCP relative to control ([1]; rats, oral acteoside 100 mg/kg): 1.54 times | Cmax of acteoside, UCP group relative to control group ([1]; rats, oral acteoside 100 mg/kg): 1.19 times | Cmax of acteoside, WCP group relative to control group ([1]; rats, oral acteoside 100 mg/kg): 1.84 times | t1/2 of acteoside, WCP group relative to UCP group ([1]; rats, oral acteoside 100 mg/kg): 1.18 times | Freeze–thaw stability (RSD,%) ([2]; 25 ng/mL): 7.93% | Freeze–thaw stability (RSD,%) ([2]; 200 ng/mL): 4.56% | Freeze–thaw stability (RSD,%) ([2]; 1000 ng/mL): 4.45% | Short-term stability (RSD,%) ([2]; 25 ng/mL): 6.91% | Short-term stability (RSD,%) ([2]; 200 ng/mL): 3.15% | Short-term stability (RSD,%) ([2]; 1000 ng/mL): 2.79% | Post-preparation stability (RSD,%) ([2]; 25 ng/mL): 7.03% | Post-preparation stability (RSD,%) ([2]; 200 ng/mL): 3.46% | Post-preparation stability (RSD,%) ([2]; 1000 ng/mL): 3.68% | Long-term stability (RSD,%) ([2]; 25 ng/mL): 8.28% | Long-term stability (RSD,%) ([2]; 200 ng/mL): 6.67% | Long-term stability (RSD,%) ([2]; 1000 ng/mL): 4.99%

O=C(O)/C=C/c1ccc(O)c(O)c1 [Caffeic acid, caffeic acid]
AUC(0-inf) [1, 6]: 110 ± 15.4 ng·h/mL | AUC(0-t) [1, 6]: 76.1 ± 13.3 ng·h/mL | Tmax [1, 6]: 0.75 h | half-life [1, 6]: 2.17 ± 0.693 h | Cmax ([1]; metabolite in rat plasma following oral acteoside 100 mg/kg, Control group, n = 6, read-out: Cmax): 30.4 ± 14.2 ng/mL | MRT last [1, 6]: 1.56 ± 0.172 h | MRT inf [1, 6]: 2.51 ± 0.273 h | AUC(0-inf) [1, 7]: 117 ± 13.3 ng·h/mL | AUC(0-t) [1, 7]: 100 ± 17.7 ng·h/mL | Tmax [1, 7]: 0.75 h | Cmax ([1]; metabolite in rat plasma following oral acteoside 100 mg/kg, UCP group, n = 6, read-out: Cmax): 44.1 ± 15.8 ng/mL | MRT last [1, 7]: 1.54 ± 0.166 h | MRT inf [1, 7]: 2.18 ± 0.267 h | AUC(0-inf) [1, 8]: 144 ± 26.7 ng·h/mL | AUC(0-t) [1, 8]: 125 ± 25.9 ng·h/mL | Tmax [1, 8]: 0.75 h | half-life [1, 8]: 1.29 ± 0.914 h | Cmax ([1]; metabolite in rat plasma following oral acteoside 100 mg/kg, WCP group, n = 6, read-out: Cmax): 55.5 ± 16.9 ng/mL | MRT last [1, 8]: 1.52 ± 0.161 h | MRT inf [1, 8]: 2.1 ± 0.256 h | Cmax of metabolite, WCP group relative to UCP group ([1]; rats, following oral acteoside 100 mg/kg): 1.26 times | Freeze–thaw stability (RSD,%) ([2]; 25 ng/mL): 9.14% | Freeze–thaw stability (RSD,%) ([2]; 200 ng/mL): 8.23% | Freeze–thaw stability (RSD,%) ([2]; 1000 ng/mL): 7.08% | Short-term stability (RSD,%) ([2]; 25 ng/mL): 7.78% | Short-term stability (RSD,%) ([2]; 200 ng/mL): 7.34% | Short-term stability (RSD,%) ([2]; 1000 ng/mL): 4.91% | Post-preparation stability (RSD,%) ([2]; 25 ng/mL): 8.33% | Post-preparation stability (RSD,%) ([2]; 200 ng/mL): 7.87% | Post-preparation stability (RSD,%) ([2]; 1000 ng/mL): 6.87% | Long-term stability (RSD,%) ([2]; 25 ng/mL): 9.75% | Long-term stability (RSD,%) ([2]; 200 ng/mL): 8.56% | Long-term stability (RSD,%) ([2]; 1000 ng/mL): 8.43%
